Source: US9175355B2, “Methods for determining the presence of antibodies blocking viral infection” (Monogram Biosciences, Inc., priority 2002, dated 2015)

What was measured:
[1] = test system: X4 tropic viruses; settings: inhibitory concentration of drug; U87/CD4/CXCR4
Protocol: One cell line expresses CD4 plus CCR5 (U87/CD4/CCR5), also referred to as R5 cells in this application. The other cell line expresses CD4 and CXCR4 (U87/CD4/CXCR4) also referred to as X4 cells in this application. The virus entry assay is performed by infecting individual cell cultures with recombinant virus stocks derived from cells transfected with pHIVenv and pHIV luc or pHIVlucΔU3 vectors. pHIVenv vectors contain patient virus derived sequences and express HIV-1 envelope proteins (gp120SU, gp41TM). In this embodiment viruses are evaluated in using R5 and X4 target cells cultured in 96 well plates (FIG. 3A). Typically, R5 and X4 cells are plated one day prior to infection. […] Co-receptor tropism is assessed by comparing the amount of luciferase activity produced in each cell type, both in the presence and absence of drug. In this embodiment, the results of the assay are interpreted by comparing the ability of each virus to preferentially infect (produce luciferase activity) R5 cells or X4 cells, or both X4 and R5 cells if the virus is dual tropic. The ability of the CCR5 or CXCR4 inhibitor to specifically block infection (inhibit luciferase activity) is also evaluated (FIG. 3B).

[2] = test system: HIV-1 (NL4-3, JRCSF) with mutations in the GIV motif of gp41; test: Virus entry assay: T-20 susceptibility of site directed gp41 mutant viruses; type: cell-based; settings: cells expressing CD4, CCR5 and CXCR4; luciferase; compared by IC50
Protocol: Susceptibility assays for HIV-1 entry inhibitors were performed using packaging host cells consisting of the human embryonic kidney cell line 293 (Cell Culture Facility, UC San Francisco, SF, CA) and target host cells consisting of a human osteosarcoma (HOS) cell line expressing CD4 (HT4) plus CCR5, and CXCR4, or astrocytoma (U-87) cell lines expressing either CD4 and CCR5 or CD4 and CXCR4.
Drug susceptibility testing was performed using pHIVenv and pHIVluc or pHIVlucΔU3. Pseudotyped HIV particles containing envelope proteins encoded by the patient derived segment were produced by transfecting a packaging host cell (HEK 293) with resistance test vector DNA. […] After infection (˜72 h) the target cells are lysed and luciferase activity is measured. […] The amount of luciferase activity detected in the infected cells is used as a direct measure of “infectivity” (FIGS. 1 and 2). […] Drug susceptibility is assessed by comparing the infectivity in the absence of drug to infectivity in the presence of drug. Relative drug susceptibility can be quantified by comparing the susceptibility of the “test” virus to the susceptibility of a well-characterized reference virus (wildtype) derived from a molecular clone of HIV-1, for example NL4-3 or HXB2. […]

Row | Compound | Infection of X4 cells by X4 tropic viruses (luciferase activity) [1] | T-20 susceptibility of viruses with one mutation in gp41 motif (DIV, GIM, SIV) vs wildtype virus (GIV) [2] | T-20 susceptibility of viruses with two mutations in GIV motif (DIM, SIM, DTV) vs viruses with one or no mutations [2]
1 | c1cc(CN2CCCNCCNCCCNCC2)ccc1CN1CCCNCCNCCCNCC1 [AMD3100] | blocked |  | 
2 | enfuvirtide |  | less susceptible | less susceptible
